Data published in patent US4868203A, “Bacterial substance and pharmaceutical composition thereof” (Kabushikikaisha Ueno Seiyaku Oyo Kenkyujo, priority 1986, dated 1989).
In brackets after ≈: the same amount, converted by molar mass. Like-named read-outs stand apart in the source and are kept apart here.

Key:
[1] = Solubility in various solvents
Salmonella typhimurium = format: cell-based
Experimental: (§1) The minimum growth inhibitory concentration (MIC) values of bacterial substance UFC-N11 to various kinds of bacteria determined according to the conventional method were measured in the conventional manner.

[2] = test system: Xandomonas campestris PV campestris NIAES 1152; format: cell-based; settings: Xandomonas campestris PV campestris NIAES 1152 (black rot)
Experimental: as §1

[3] = test system: Xandomonas campestris FV Pruni 7855SMR; format: cell-based; settings: Xandomonas campestris FV Pruni 7855SMR (bacterial spot of peach)
Experimental: as §1

[4] = test system: Escherichia coli NIHJ JC-2; format: cell-based
Experimental: as §1

Proteus vulgaris OX-19 = format: cell-based
Experimental: as §1

[5] = test system: Pseudomonas syringae PV Mori NIAES 1020; format: cell-based; settings: Pseudomonas syringae PV Mori NIAES 1020 (bacterial rugose)
Experimental: as §1

Bacillus subtilis 6633 = format: cell-based
Experimental: as §1

[6] = test system: Staphylococcus aureus 209-P; format: cell-based
Experimental: as §1

Campylobacter jejuni = format: cell-based
Experimental: as §1

[7] = test system: Pseudomonas syringae PV lachrymans NIAES 1316; format: cell-based; settings: Pseudomonas syringae PV lachrymans NIAES 1316 (angular leaf spot of cucumber)
Experimental: as §1

[8] = test system: Corynebacterium michiganence PV michiganene NIAES 1044; format: cell-based; settings: Corynebacterium michiganence NIAES 1044 (bacterial canker of tomatoes)
Experimental: as §1

Campylobacter fetus = format: cell-based
Experimental: as §1

[9] = test system: Enterobacter cloacae IID977; format: cell-based
Experimental: as §1

[10] = test system: Pseudomonas syringae PV tabaci NIAES 1075; format: cell-based
Experimental: as §1

Klebsiella pneumoniae = format: cell-based
Experimental: as §1

Pseudomonas aeruginosa = format: cell-based
Experimental: as §1

[11] = test system: Salmonella enteritidis 1891; format: cell-based
Experimental: as §1

[12] = test system: Ervinia carotovara subsp. carotovora NIAES 1393; format: cell-based; settings: Ervinia carotovara NIAES 1393 (black leg of potatoes)
Experimental: as §1

[13] = Absorbance by oral administration, absorption and secretion in yellowtail (Test Example 10); format: in vivo; settings: oral 100 mg/kg
Experimental: To a cultured yellowtail, UFC-N11 was compulsorily oral-administered at the rate of 100 mg/kg per body weight of fish. The tissue samples were collected 3, 8, and 24 hours later respective in order to determine the concentrations in the tissues.

[14] = test system: Aeromonas salmonicida, MC7503; test: Minimum growth inhibiting concentration, pathogenic bacteria of fish disease (Test Example 8); format: cell-based; settings: MC7503 (Furunculosis of salmonids)
Source text: (§2) The minimum growth inhibitory concentrations (MIC) of the bacterial substance UFC-N11 against various bacteria were according to conventional procedure the results are as follows: […]

Edwardssiella tarda 4-1 = test: as above; format: cell-based; settings: Edwardssiella tarda 4-1 (Edwardsiellosis of eel)
Source text: as §2

[15] = test system: Xanthomonas campestris PV citri; settings: for Prevention: sprayed 24 hours after inoculation, 14 days
[16] = test system: Pseudomonas syringae PV lachrymans NIAES 1316; test: Evaluation of activity against the bacterial spot of cucumber (Test Example 3); format: in vivo; settings: 50 ppm
Experimental: Cucumber(Green tokiwa) was used for the test. Potted cucumber plants (2 leaf stage) were sprayed with sufficient amount of 50 ppm solution of bacterial substance UFC-N11 (dissolved in 0.05% aqueous sodium bicarbonate), air-dried, and spray-inoculated 10^8 /ml suspension of Pseudomonas Syringae PV lachrymans NIAES 1316, cultured on Wakimoto medium for 3 days, on both sides of leaves. For the control, an experiment was carried out using a solution without the substance N11 in the same manner as described above. After inoculation, the plants were maintained at 28° C. for 24 hours and maintained in a glass house until the day of evaluation. Six days after inoculation, percentage of spots area affected on the first and second seed leaf was observed and protection value was calculated according to the following formula: [formula] The experiment was repeated using Cu(OH)2 (Kosaid) 83% wettable powder (produced by Hokko chemical Industry Co. Ltd.) as a positive reference. In this case CaCO3 (Kurefunon) (produced by Shiraishi Calcium) was added (×200) in order to reduce damage.

[17] = test system: Pasteurella piscicida KGP86041; format: cell-based
[18] = test system: Pseudomonas solanacearum NIAES 1418; format: cell-based; settings: Pseudomonas solanacearum NIAES 1418 (wilt of solanum)
[19] = Storage life of steamed Chinese noodles (Test Example 5)
Experimental: After kneading for 10 minutes. the product was rolled and cut with cutting edge (#10) to give noodles. The resulting noodles were steamed at the temperature higher than 98° C. for 6 minutes, washed with water, packed in polyethylene packages (each weighing 40 g) and heated at 85° C. for 30 minutes. The obtained packages containing Chinese noodles (10 bags/group) were maintained at 30° C. and the change in appearance with time was observed and preservation effect was evaluated according to the following evaluation scale. The values shown in the following Table are averaged evaluation levels of degeneration.

For `CC=CC=CC=CC(=O)NC(CC(=O)NC(C(=O)C1C(=O)NC(=O)C1C)C(C)C)c1ccccc1` (stereo not drawn) [UFC-N11], the “Solubility in various solvents” value ([1]; n-hexane, chloroform, benzene and water) was “slightly soluble or insolbule”, the “Solubility in various solvents” value ([1]; pyridine, acetic acid, dimethyl sulfoxide, methanol, ethanol, acetone, ethyl acetate and dimethyl ether) was “soluble” and the MIC (Salmonella typhimurium) was 6.25 mg/L (≈ 13 µM). The MIC [2] was 0.1 mg/L (≈ 0.209 µM), the MIC [3] was 0.1 mg/L (≈ 0.209 µM) and the MIC [4] was 1.56 mg/L (≈ 3.25 µM). For the same compound, the MIC (Proteus vulgaris OX-19) was 0.195 mg/L (≈ 0.407 µM), the MIC [5] was 25 mg/L (≈ 52.1 µM) and the MIC (Bacillus subtilis 6633) was 0.39 mg/L (≈ 0.813 µM). For the same compound, the MIC [6] was 1.56 mg/L (≈ 3.25 µM), the MIC (Campylobacter jejuni) was 0.78 mg/L (≈ 1.63 µM) and the MIC [7] was 6.25 mg/L (≈ 13 µM). The MIC [8] was 6.25 mg/L (≈ 13 µM), the MIC (Campylobacter fetus) was 1.56 mg/L (≈ 3.25 µM) and the MIC [9] was 25 mg/L (≈ 52.1 µM). For the same compound, the MIC [10] was 12.5 mg/L (≈ 26.1 µM), the MIC (Klebsiella pneumoniae) was 12.5 mg/L (≈ 26.1 µM) and the MIC (Pseudomonas aeruginosa) was 50 mg/L (≈ 104 µM). The MIC [11] was 0.78 mg/L (≈ 1.63 µM), the MIC [12] was 6.25 mg/L (≈ 13 µM) and the absorption [13] was “absorbed in concentrations which were equal to or in excess of the anti-bacterial activity”. For the same compound, the “Concentration in tissue, Kidney” value ([13]; 3 hr) was 6.55 µg/g, the “Concentration in tissue, Liver” value ([13]; 3 hr) was 8.79 µg/g and the “Concentration in tissue, Muscle” value ([13]; 3 hr) was 0.96 µg/g. For the same compound, the “Concentration in tissue, Plasma” value ([13]; 3 hr) was 2.10 µg/mL, the “Concentration in tissue, Kidney” value ([13]; 8 hr) was 4.02 µg/g and the “Concentration in tissue, Liver” value ([13]; 8 hr) was 5.14 µg/g. The “Concentration in tissue, Muscle” value ([13]; 8 hr) was 1.12 µg/g, the “Concentration in tissue, Plasma” value ([13]; 8 hr) was 1.34 µg/mL and the “Concentration in tissue, Kidney” value ([13]; 24 hr) was 1.13 µg/g. For the same compound, the “Concentration in tissue, Liver” value ([13]; 24 hr) was 1.36 µg/g, the “Concentration in tissue, Muscle” value ([13]; 24 hr) was < 0.25 µg/g and the “Concentration in tissue, Plasma” value ([13]; 24 hr) was < 0.125 µg/mL. It also gave an MIC [14] of 1.25 mg/L (≈ 2.61 µM), an MIC (Edwardssiella tarda 4-1) of 2.5 mg/L (≈ 5.21 µM) and a Prevention ([15]; 20 ppm) of 26.70%. For the same compound, the Prevention ([15]; 40 ppm) was 33.9%, the Damage ([15]; in vivo) was “nil” and the Damage ([16]; cucumber plants) was “Nil”. The Protection ([16]; sprayed before inoculation, 6 days) was 36.8, the MIC [17] was 0.16 mg/L (≈ 0.334 µM) and the MIC [18] was 1.56 mg/L (≈ 3.25 µM). It also gave a Storage life ([19]; 0.1 ppm, pH of product 9.39, 30° C.) of 6.0 days, a Storage life ([19]; 1.0 ppm, pH of product 9.41, 30° C.) of 8.1 days and a Storage life ([19]; 10 ppm, pH of product 9.40, 30° C.) of 10.0 days. For the same compound, the Storage life ([19]; 50 ppm, pH of product 9.38, 30° C.) was 16.0 days, the Storage life ([19]; 100 ppm, pH of product 9.41, 30° C.) was 20.0 days and the “preservability of the heated and steamed Chinese noodles” value ([19]; upon addition of UFC-N11) was “remarkably improved”.
